Values quoted from earlier work, collected in patent publication US20080317729A1, “Ammonium Salts and Ammonium Salt/Mineral Salt Clathrate Compounds for Use as Vehicle and Effective Form for Pharmaco-Medical Applications and for Use as Phase Transfer Agents for Chemical Applications” (priority 2004, published 2008).

solubility: moderately dissoluble
Structure (SMILES): CCN(CC)CCOC(=O)c1ccc(N)cc1 [diprocainium carbonate]
